Source: BigSolDB 2.1

Cl.N[C@@H](Cc1ccccc1)C(=O)OCc1ccccc1
solubility (mole fraction)
Conditions	283.15 K	288.15 K	293.15 K	298.15 K	303.15 K	313.15 K	323.15 K
in acetone	8e-05	–	0.000134	–	0.000224	0.000347	0.000511
in acetonitrile	5.4e-05	0.000115	0.000188	0.000262	0.000365	–	–
in ethanol	0.00311	–	0.00396	–	0.00491	0.00625	0.00832
in ethyl acetate	–	2.6e-05	3.8e-05	–	6.3e-05	0.000116	0.000181
in isobutanol	–	0.00056	0.000879	–	0.00121	0.00174	0.00256
in isopropanol	0.000417	–	0.000588	–	0.000882	0.00123	0.00178
in methanol	0.0158	–	0.0186	–	0.0223	0.0274	0.0324
in n-butanol	0.0011	–	0.0015	–	0.00191	0.00263	0.0039
in n-pentanol	0.000703	–	0.00103	–	0.00158	0.00213	0.00307
in n-propanol	0.00168	–	0.00203	–	0.00281	0.00386	0.00515
in water	0.000969	–	0.0012	–	0.0015	0.00197	0.00266
